According to patent publication US8420777B2, “Compounds that inhibit Hsp90 protein-protein interactions with IAP proteins” (University of Massachusetts, priority 2004, dated 2013):

What was measured:
[1] = test system: HeLa cells; assay: Stability of Hsp90 client proteins and caspase-3 proform, Western blot; type: cell-based, Human; settings: increasing concentrations, 24 hours
Protocol: To determine whether intracellular loading of the Survivin cell permeable peptide reproduced the effect of mAb 8E2 that disrupts the Survivin-Hsp90 interaction in destabilizing Survivin levels in vivo (FIG. 8), HeLa cells were loaded with the indicated increasing concentrations of cell permeable control (SEQ ID NO:25) or Survivin (SEQ ID NO:19) cell permeable peptide, harvested after 24 hours, and analyzed for stability of Hsp90 client proteins, Survivin and Akt. Polyclonal antibody to Akt was obtained from Cell Signaling Technology (Cat. No. 9272).

[2] = molecular target: T1, survivin-Hsp90 (Homo sapiens, UniProt P07900, S63T); assay: ELISA inhibition of recombinant survivin binding to Hsp90
T1 construct: GST-Hsp90 (amino acids 1-732); GST (N); made in house; host or cells: E. coli
Source text: FIG. 31 is a graph depicting Hsp90 binding by Survivin peptides, measured by ELISA. Data are the mean±S.D. of two independent experiments.

For “RQIKIWFQNRRMKWKKKHSSGCAFL (Synthetically generated peptide) [P31]”, the “levels of Survivin and Akt” value [1] was “low levels of Survivin and Akt” and the “inhibition of binding of recombinant survivin to Hsp90” value [2] was “inhibited the binding of recombinant survivin to Hsp90 in a dose-dependent manner”.
